One test has as its target T1, human SCD1 (Homo sapiens, UniProt O00767).
T1 construct: expressed in transfected cells; host or cells: yeast strain with OLE1 deleted, plasmid-borne human SCD1 (selected in SD-Ura)
T1 sequence (O00767 1-359): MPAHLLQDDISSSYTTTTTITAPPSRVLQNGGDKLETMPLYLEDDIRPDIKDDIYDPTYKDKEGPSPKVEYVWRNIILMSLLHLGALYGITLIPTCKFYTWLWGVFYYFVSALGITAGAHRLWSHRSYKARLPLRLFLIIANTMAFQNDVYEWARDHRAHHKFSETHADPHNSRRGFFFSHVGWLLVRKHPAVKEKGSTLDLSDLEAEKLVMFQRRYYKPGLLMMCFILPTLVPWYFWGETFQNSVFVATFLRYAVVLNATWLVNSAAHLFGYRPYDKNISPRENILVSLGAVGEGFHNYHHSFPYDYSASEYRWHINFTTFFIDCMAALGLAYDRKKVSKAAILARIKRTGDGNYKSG
Kind of test: Growth inhibition of yeast strain expressing human SCD1 as sole desaturase (OLE1 deleted), OD600 readout. The class given is cell-based. To be noted: yeast strain expressing human SCD1 as sole desaturase; growth (OD600) after 40 h at 30° C.; read-out: SCD1 IC50.

The target of another test is T2, human SCD5 (Homo sapiens, UniProt Q86SK9).
T2 construct: expressed in transfected cells; host or cells: yeast strain with OLE1 deleted, plasmid-borne human SCD5 (selected in SD-Ura)
T2 sequence (Q86SK9 1-330): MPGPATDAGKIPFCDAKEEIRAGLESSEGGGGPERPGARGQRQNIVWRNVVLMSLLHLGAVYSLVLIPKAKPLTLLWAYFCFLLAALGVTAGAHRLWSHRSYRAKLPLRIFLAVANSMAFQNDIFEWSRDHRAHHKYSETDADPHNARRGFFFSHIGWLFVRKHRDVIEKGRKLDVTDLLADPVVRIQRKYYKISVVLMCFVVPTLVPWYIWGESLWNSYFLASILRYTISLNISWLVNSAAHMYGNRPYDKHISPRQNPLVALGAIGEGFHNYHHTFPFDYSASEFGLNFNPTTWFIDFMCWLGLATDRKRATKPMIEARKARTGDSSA
Kind of test: Growth inhibition of yeast strain expressing human SCD5 as sole desaturase (OLE1 deleted), OD600 readout. The class given is cell-based. The settings on record: yeast strain expressing human SCD5 as sole desaturase; growth (OD600) after 40 h at 30° C.; read-out: SCD5 IC50.

Experimental findings from patent publication US20230078764A1 (Yumanity Therapeutics, Inc., priority 2019, published 2023) are described below.

What is called IC50 is the concentration that inhibits the measured activity by half.

Regarding `CC(O)c1ccc(C(=O)Nc2ccc(Cc3cccc(Cl)c3)cn2)nn1` (stereo not shown) [Compound 512], the IC50 stood at 49 nM on human SCD1 and 60 nM at human SCD5.

Consider `CC(O)c1ccc(C(=O)Nc2ccc(Cc3cc(F)cc(F)c3)cn2)cn1` (stereo not shown) [Compound 513], for which the results for the concentration for half-maximal inhibition (IC50) on human SCD1 and at human SCD5 were 770 nM and 170 nM, respectively.

On to `CC(O)c1ccc(C(=O)Nc2ccc(Cc3ccc(F)c(F)c3)cn2)cn1` (stereo not shown) [Compound 514], for which the IC50 on human SCD1 worked out at 2600 nM; at human SCD5 it was 320 nM.

Consider `Cn1ccc(C(=O)Nc2ccc(Cc3ccc(F)c(F)c3)cn2)cc1=O` [Compound 515], for which the IC50 at human SCD1 worked out at 5900 nM; on human SCD5, 320 nM.

As to `CC(=O)c1ccc(C(=O)Nc2ccc(Cc3ccc(F)c(F)c3)cn2)nn1` [Compound 516], the values for the 50% inhibitory concentration (IC50) on human SCD1 and at human SCD5 were 960 nM and 770 nM, respectively.

In the case of `CC(=O)c1ccc(C(=O)Nc2ccc(Cc3cccc(Cl)c3)cn2)nn1` [Compound 517], the half-maximal inhibitory concentration (IC50) worked out at 180 nM on human SCD1 and 140 nM at human SCD5.

For `O=C(Nc1ccc(Cc2ccc(F)c(F)c2)cn1)c1ncc(Br)cn1` [Compound 518], the figures for the IC50 on human SCD1 and at human SCD5 were > 45000 nM and 1700 nM, respectively.

For the molecule `C[C@H](O)c1ccc(C(=O)Nc2ccc(Cc3cccc(Cl)c3)cn2)cn1` [Compound 519], the IC50 is 880 nM on human SCD1 and 220 nM on human SCD5.

Regarding `C[C@@H](O)c1ccc(C(=O)Nc2ccc(Cc3cccc(Cl)c3)cn2)cn1` [Compound 520], the IC50 was determined as 360 nM at human SCD1 and 90 nM on human SCD5.

As for `C#Cn1nc(C(=O)Nc2ccc(Cc3cccc(Cl)c3)cn2)ccc1=O` [Compound 521], the IC50 on human SCD1 stood at 2500 nM; on human SCD5 it was 5300 nM.

With `CC(O)c1ccc(C(=O)Nc2ccc(Cc3ccc(F)c(Cl)c3)cn2)cn1` (stereo not shown) [Compound 522], the results for the IC50 at human SCD1 and at human SCD5 were 360 nM and 60 nM, respectively.

Regarding `Cc1cc(C(=O)Nc2ccc(Cc3ccc(F)c(F)c3)cn2)nn(C)c1=O` [Compound 523], the figures for the IC50 on human SCD1 and on human SCD5 were > 45000 nM and 110 nM, respectively.

As to `Cc1cc(C(=O)Nc2ccc(Cc3cc(F)cc(F)c3)cn2)nn(C)c1=O` [Compound 524], the IC50 at human SCD1 was > 45000 nM; at human SCD5, 29 nM.

Regarding `N#Cc1ncc(C(=O)Nc2ccc(Cc3ccc(F)c(F)c3)cn2)cn1` [Compound 525], the IC50 is > 45000 nM on human SCD1 and 550 nM at human SCD5.

`N#Cc1ccc(NC(=O)c2ccc(Cc3cc(F)cc(F)c3)cn2)cn1` [Compound 526]: the figures for the IC50 on human SCD1 and on human SCD5 were 99 nM and 10 nM, respectively.

`O=C(Nc1ccc(Cc2cccc(F)c2)cn1)c1cc2ncnc(Cl)c2s1` [Compound 527]: the IC50 on human SCD1 was > 45000 nM; at human SCD5 it was 1300 nM.

`Cn1nc(C(=O)Nc2ccc(Cc3cc(F)c(F)c(Cl)c3)cn2)ccc1=O` [Compound 528]: the results for the IC50 on human SCD1 and on human SCD5 were 60 nM and 10 nM, respectively.

With `CC(O)c1ccc(C(=O)Nc2ccc(Cc3cccc(F)c3)cn2)cn1` (stereo not shown) [Compound 529], the figures for the IC50 at human SCD1 and at human SCD5 were 1100 nM and 670 nM, respectively.

Turning to `CC(O)c1ccc(C(=O)Nc2ccc(Cc3ccc(F)c(F)c3)cn2)nn1` (stereo not shown) [Compound 530], the IC50 was 160 nM at human SCD1 and 190 nM at human SCD5.

`CCc1cc(C(=O)Nc2ccc(Cc3cccc(F)c3)cn2)nn(C)c1=O` [Compound 531]: the half-inhibitory concentration (IC50) turned out to be 1300 nM on human SCD1 and 340 nM at human SCD5.

As to `Cn1nccc(C(=O)Nc2ccc(Cc3cc(F)cc(F)c3)cn2)c1=O` [Compound 532], the half-maximal inhibitory concentration (IC50) at human SCD1 and on human SCD5 was 10 nM in each case.

Turning to `Cn1ccc(C(=O)Nc2ccc(Cc3cc(F)cc(F)c3)cn2)cc1=O` [Compound 533], the IC50 was found to be 220 nM at human SCD1 and 10 nM on human SCD5.

For `N#Cc1ccc(C(=O)Nc2ccc(Cc3ccc(F)c(C#N)c3)cn2)nc1` [Compound 534], the IC50 was 6000 nM at human SCD1 and 200 nM on human SCD5.

`N#Cc1cc(F)cc(Cc2ccc(NC(=O)c3ccc(C#N)nc3)nc2)c1` [Compound 535]: the values for the IC50 at human SCD1 and at human SCD5 were > 45000 nM and 480 nM, respectively.

Consider `N#Cc1ccc(C(=O)Nc2ccc(Cc3cc(F)cc(C#N)c3)cn2)nc1` [Compound 536], for which the concentration for half-maximal inhibition (IC50) on human SCD1 came to 1000 nM; on human SCD5 it was 110 nM.

Take `Cn1nc(C(=O)Nc2ccc(Cc3ccc(F)cc3F)cn2)ccc1=O` [Compound 537]: the IC50 was 17000 nM at human SCD1 and 490 nM on human SCD5.

As for `Cn1cc(C(=O)Nc2ccc(Cc3ccc(F)cc3F)cn2)ccc1=O` [Compound 538], the IC50 at human SCD1 was 1600 nM; on human SCD5, 180 nM.

With `Cn1nc(C(=O)Nc2ccc(Cc3cc(F)ccc3F)cn2)ccc1=O` [Compound 539], the IC50 on human SCD1 stood at 3500 nM; on human SCD5, 170 nM.

Take `Cn1nc(CO)cc1C(=O)Nc1ccc(Cc2cccc(F)c2)cn1` [Compound 540]: the IC50 amounted to 60 nM at human SCD1 and 10 nM on human SCD5.

With `N#Cc1ccc(C(=O)Nc2ccc(Cc3ccc(F)c(F)c3)cn2)cn1` [Compound 541], the IC50 on human SCD1 turned out to be 6600 nM; on human SCD5 it was 220 nM.

For the molecule `N#Cc1ccc(NC(=O)c2ccc(Cc3ccc(F)c(F)c3)cn2)cn1` [Compound 542], the concentration for half-maximal inhibition (IC50) stood at 18000 nM at human SCD1 and 10 nM at human SCD5.

For `Cn1cc(C(=O)Nc2ccc(Cc3cc(F)c(F)c(Cl)c3)cn2)ccc1=O` [Compound 543], the IC50 at human SCD1 is 37 nM; on human SCD5, 10 nM.

`O=C(Nc1ccc(Cc2cccc(F)c2)cn1)c1ncc(CO)cn1` [Compound 544]: the IC50 on human SCD1 was determined as 10 nM; at human SCD5 it was 960 nM.

For the molecule `Cn1cc(C(=O)Nc2ccc(Cc3cccc(C(F)F)c3)cn2)ccc1=O` [Compound 545], the IC50 at human SCD1 was determined as 710 nM; at human SCD5, 100 nM.

With `Cn1nccc(C(=O)Nc2ccc(Cc3cccc(F)c3)cn2)c1=O` [Compound 546], the IC50 was determined as 320 nM on human SCD1 and 27 nM on human SCD5.

Consider `Cn1nccc(C(=O)Nc2ccc(Cc3ccc(F)c(F)c3)cn2)c1=O` [Compound 547], for which the IC50 came out at 240 nM at human SCD1 and 10 nM on human SCD5.

In the case of `Cn1ccc(C(=O)Nc2ccc(Cc3ccc(F)c(F)c3)cn2)nc1=O` [Compound 548], the values for the IC50 on human SCD1 and on human SCD5 were > 45000 nM and 3000 nM, respectively.

As for `N#Cc1cnc(C(=O)Nc2ccc(Cc3ccc(F)c(F)c3)cn2)nc1` [Compound 549], the IC50 was > 45000 nM at human SCD1 and 890 nM at human SCD5.

With `Cn1cc(C(=O)Nc2ccc(Cc3ccc(F)c(C#N)c3)cn2)ccc1=O` [Compound 550], the IC50 worked out at 2400 nM at human SCD1 and 370 nM at human SCD5.

On to `Cn1nc(C(=O)Nc2ccc(Cc3cccc(F)c3F)cn2)ccc1=O` [Compound 551], for which the IC50 was > 45000 nM on human SCD1 and 1200 nM at human SCD5.

As to `Cn1cc(C(=O)Nc2ccc(Cc3cccc(F)c3F)cn2)ccc1=O` [Compound 552], the IC50 was 1900 nM on human SCD1 and 360 nM on human SCD5.

On to `O=C(O)c1cnc(C(=O)Nc2ccc(Cc3ccc(F)c(F)c3)cn2)cn1` [Compound 554], for which the IC50 worked out at 3200 nM on human SCD1 and 8800 nM at human SCD5.

Turning to `O=C(Nc1ccc(Cc2cccc(F)c2)cn1)c1cc2ncncc2s1` [Compound 555], the values for the IC50 on human SCD1 and at human SCD5 were 740 nM and 10 nM, respectively.

Turning to `O=C(Nc1ccc(Cc2cccc(Cl)c2)cn1)c1cc2ncncc2s1` [Compound 556], the results for the IC50 on human SCD1 and at human SCD5 were 2300 nM and 10 nM, respectively.

Regarding `O=C(Nc1ccc(Cc2cccc(Cl)c2)cn1)c1ccc(C2(O)CC2)nc1` [Compound 557], the IC50 on human SCD1 is > 45000 nM; on human SCD5, 1900 nM.

Take `Cn1nc(C(=O)Nc2ccc(Cc3cc(F)c(F)c(C#N)c3)cn2)ccc1=O` [Compound 558]: the figures for the IC50 on human SCD1 and on human SCD5 were 43000 nM and 64 nM, respectively.

As for `O=C(Nc1ccc(Cc2cc(F)cc(F)c2)cn1)c1ncc(CO)cn1` [Compound 559], the IC50 at human SCD1 and on human SCD5 was 10 nM throughout.

Turning to `Cn1nc(C(=O)Nc2ccc(Cc3cccc(F)c3)cn2)cc1CO` [Compound 560], the IC50 is 250 nM on human SCD1 and 22 nM on human SCD5.

With `Cn1nc(C(=O)Nc2ccc(Cc3cccc(C(F)F)c3)cn2)ccc1=O` [Compound 561], the IC50 at human SCD1 worked out at 6700 nM; on human SCD5, 200 nM.

With `Cn1nc(C(=O)Nc2ccc(Cc3cc(F)cc(C(F)F)c3)cn2)ccc1=O` [Compound 562], the IC50 on human SCD1 was 1000 nM; at human SCD5 it was 10 nM.

`N#Cc1cc(C(=O)Nc2ccc(Cc3ccc(F)c(F)c3)cn2)ccn1` [Compound 563]: the IC50 on human SCD1 was 1100 nM; at human SCD5, 570 nM.

`Cn1nc(C(=O)Nc2ccc(Cc3ccc(F)c(C#N)c3)cn2)ccc1=O` [Compound 564]: the IC50 was found to be 1400 nM at human SCD1 and 62 nM at human SCD5.

On to `Cn1cc(C(=O)Nc2ccc(Cc3cc(F)ccc3F)cn2)ccc1=O` [Compound 565], for which the IC50 at human SCD1 is 2700 nM; at human SCD5, 20 nM.
